Measured values as given in US10238688B2, “Combination therapies for bladder cancer” (GENEDIA BIOTECH CO. LTD., priority 2015, dated 2019).

What was measured:
5637 = assay: MTT cell survival / IC50, 5637 cells; format: cell-based, human; conditions: 5637; for Single drug 4X Cell Survival (%): ng/ml: EH 1000, Ci 6000, Mi 800, Pi 160, Pa 640, Ge 20, EH/Ci/Mi regimen; for Cell survival (%): Table S3, ng/ml: Pi 40, Pa 160, EH 250, Ci 1500, Mi 200, 1=Ci/Mi, 2=EH/Ci/Mi, 3=Pa/Ci/Mi, 4=Pi/Ci/Mi
Description: (§1) The clinical grade of the chemotherapeutics (NCI Dictionary of Cancer Terms) was provided by the First Affiliated Hospital of Harbin Medical University: Pirarubicin (Pi, Wanle, Shenzhen), Paclitaxel (Pa, Taiji, Sichuan), Adriamycin (Ad, Pfizer, Jiangsu), Epirubicin Hydrochloride (EH, Haizheng, Zhejiang), Hydroxycamptothecin (Hy, Lishizhen, Hubei), Cisplatin (Ci, Haosen, Jiangsu), Gemcitabine (Ge, Haosen, Jiangsu) and Mitomycin (Mi, Haizheng, Zhejiang). The drug induced cell death was determined by a thiazolyl […] (MTT, 490 nm reading) based cell proliferation assay in the cultured cells following treatment by various concentrations of drugs for 72 hours. The relative chemoresistance to each drug of all cell lines was calculated with the lowest IC50 as a reference. The overall chemoresistance of each cell line was described as “chemoresistance index”, the numerator of the total relative IC50 to all the drugs over the number of drugs to rank the overall resistance state of each cell line to the six chemotherapeutics collectively.
(§2) The relative IC50 (fold) of each drug of all nine cell lines was normalized to the lowest IC50 in the most sensitive cell line (FIG. 2G), to describe the single drug resistance of cell lines. The overall chemoresistance of each cell line, a “chemoresistance index” (the numerator of the total relative IC50 over the number of drugs) (FIG. 2G) were calculated to rank the overall resistance state of each cell line to this six chemotherapeutics.
(§3) Twenty six-drug combinations at the indicated doses were initially generated through a random number generator (using MATLAB MathWorks©, Natick, Mass., U.S.) (The upper half of Table 1). The cell survival (% over the not drug control) of treated cells was determined and then used for a calculation of the average cumulative cell survival (%, ACS: the sum of cell survival (%) per combination divided by the number of cell lines tested). ACS<30% was used to separate the effective from the not-effective combinations.

H-bc = assay: MTT cell survival / IC50, H-bc cells; format: cell-based, human; conditions: H-bc; for Single drug 4X Cell Survival (%): ng/ml: EH 1000, Ci 6000, Mi 800, Pi 160, Pa 640, Ge 20, EH/Ci/Mi regimen; for Cell survival (%): Table S3, ng/ml: Pi 40, Pa 160, EH 250, Ci 1500, Mi 200, 1=Ci/Mi, 2=EH/Ci/Mi, 3=Pa/Ci/Mi, 4=Pi/Ci/Mi
Description: as §1, §2, §3

T24 = assay: MTT cell survival / IC50, T24 cells; format: cell-based, human; conditions: for Single drug 4X Cell Survival (%): ng/ml: EH 1000, Ci 6000, Mi 800, Pi 160, Pa 640, Ge 20, EH/Ci/Mi regimen; for Cell survival (%): Table S3, ng/ml: Pi 40, Pa 160, EH 250, Ci 1500, Mi 200, 1=Ci/Mi, 2=EH/Ci/Mi, 3=Pa/Ci/Mi, 4=Pi/Ci/Mi
Description: as §1, §2, §3

EJ = assay: MTT cell survival / IC50, EJ cells; format: cell-based, human; conditions: for Single drug 4X Cell Survival (%): ng/ml: EH 1000, Ci 6000, Mi 800, Pi 160, Pa 640, Ge 20, EH/Ci/Mi regimen; for Cell survival (%): Table S3, ng/ml: Pi 40, Pa 160, EH 250, Ci 1500, Mi 200, 1=Ci/Mi, 2=EH/Ci/Mi, 3=Pa/Ci/Mi, 4=Pi/Ci/Mi
Description: as §1, §2, §3

Biu87 = assay: MTT cell survival / IC50, Biu87 cells; format: cell-based, human; conditions: Biu87; for Single drug 4X Cell Survival (%): ng/ml: EH 1000, Ci 6000, Mi 800, Pi 160, Pa 640, Ge 20, EH/Ci/Mi regimen; for Cell survival (%): Table S3, ng/ml: Pi 40, Pa 160, EH 250, Ci 1500, Mi 200, 1=Ci/Mi, 2=EH/Ci/Mi, 3=Pa/Ci/Mi, 4=Pi/Ci/Mi
Description: as §1, §2, §3

UM-UC-3 = assay: MTT cell survival / IC50, UM-UC-3 cells; format: cell-based, human; conditions: UM-UC-3; for Single drug 4X Cell Survival (%): ng/ml: EH 1000, Ci 6000, Mi 800, Pi 160, Pa 640, Ge 20, EH/Ci/Mi regimen; for Cell survival (%): Table S3, ng/ml: Pi 40, Pa 160, EH 250, Ci 1500, Mi 200, 1=Ci/Mi, 2=EH/Ci/Mi, 3=Pa/Ci/Mi, 4=Pi/Ci/Mi
Description: as §1, §2, §3

SCaBER = assay: MTT cell survival / IC50, SCaBER squamous carcinoma cells; format: cell-based, human; conditions: for Single drug 4X Cell Survival (%): ng/ml: EH 1000, Ci 6000, Mi 800, Pi 160, Pa 640, Ge 20, EH/Ci/Mi regimen; for Cell survival (%): Table S3, ng/ml: Pi 40, Pa 160, EH 250, Ci 1500, Mi 200, 1=Ci/Mi, 2=EH/Ci/Mi, 3=Pa/Ci/Mi, 4=Pi/Ci/Mi
Description: as §1, §2

SV-HUC-1 = format: cell-based; conditions: SV-HUC-1; ng/ml: EH 1000, Ci 6000, Mi 800, Pi 160, Pa 640, Ge 20; EH/Ci/Mi regimen
Description: as §1, §2

[1] = tested on: bladder cancer cell lines; assay: Average cumulative cell survival (ACS) over the panel of cell lines tested; format: cell-based, human; conditions: for ACS (%) for cancer cells: seven cancer cell lines, ng/ml: EH 1000, Ci 6000, Mi 800, Pi 160, Pa 640, Ge 20, EH/Ci/Mi regimen; for ACS (%): eight cell lines, Table S3, ng/ml: Pi 40, Pa 160, EH 250, Ci 1500, Mi 200, 1=Ci/Mi, 2=EH/Ci/Mi, 3=Pa/Ci/Mi, 4=Pi/Ci/Mi
Description: as §1
The “Differential Evolution” algorithm guided experimental optimization (DE) consisted of three iterative operations: generating drug combinations of experimental testing, acquiring the efficacy of the generated drug combinations with biological assays and recalculating further improved drug combinations using a feedback search algorithm. This example first tested twenty drug combinations at randomized doses. These drug combinations were generated from a random integer matrix generator, coded in MATLAB™ language. These twenty drug combinations were then experimentally tested for cancer cell cytotoxicity. The experimental data were then subjected to calculation with a DE algorithm for new drug combinations based on three major mathematical calculations: “Mutation”, “Crossover” and “Selection”. The equations for each step can be found in the main test. The equations for each step are coded in MATLAB™ language.
as §3, with “combinations. Nine of the twenty combinations tested in the 1st round of iteration fell into this category (the lower half of Table 1).” for “combinations.”

J-82 = assay: MTT cell survival / IC50, J-82 cells; format: cell-based, human; conditions: J82; Table S3; ng/ml: Pi 40, Pa 160, EH 250, Ci 1500, Mi 200; 1=Ci/Mi, 2=EH/Ci/Mi, 3=Pa/Ci/Mi, 4=Pi/Ci/Mi
Description: as §1, §2, §3

Compound	Single drug 4X Cell Survival (%) 5637 [%]	Single drug 4X Cell Survival (%) (H-bc)	Single drug 4X Cell Survival (%) (T24)	Single drug 4X Cell Survival (%) (EJ)	Single drug 4X Cell Survival (%) (Biu87)	Single drug 4X Cell Survival (%) (UM-UC-3)	Single drug 4X Cell Survival (%) (SCaBER)	Single drug 4X Cell Survival (%) (SV-HUC-1)	ACS (%) for cancer cells [1] [%]	Cell survival (%) 5637 [%]	Cell survival (%) (H-bc)	Cell survival (%) (J-82)	Cell survival (%) (T24)	Cell survival (%) (EJ)	Cell survival (%) (Biu87)	Cell survival (%) (UM-UC-3)	Cell survival (%) (SCaBER)	ACS (%) [1] [%]
Nc1ccn([C@@H]2O[C@H](CO)[C@@H](O)C2(F)F)c(=O)n1 [Ge, Gemcitabine]	30.06	83.17	41.49	31.95	30.82	46.97	30.87	87.83	42.19	–	–	–	–	–	–	–	–	–
CC(=O)O[C@H]1C(=O)[C@@]2(C)[C@H]([C@H](OC(=O)c3ccccc3)[C@]3(O)C[C@H](OC(=O)[C@H](O)[C@@H](NC(=O)c4ccccc4)c4ccccc4)C(C)=C1C3(C)C)[C@]1(OC(C)=O)CO[C@@H]1C[C@@H]2O [Pa, Paclitaxel]	2.09	12.89	17.31	26.38	17.58	27.74	42.21	80.17	20.89	6.45	13.96	38.51	11.55	33.05	23.08	40.09	57.91	28.08
COc1cccc2c1C(=O)c1c(O)c3c(c(O)c1C2=O)C[C@@](O)(C(=O)CO)CC3O[C@H]1C[C@H](N)[C@H](O[C@@H]2CCCCO2)[C@H](C)O1 (stereo partly drawn) [Pi, (3S)-3-glycoloyl-3,5,12-trihydroxy-10-methoxy-6,11-dioxo-1,2,3,4,6,11-hexahydrotetracen-1-yl 3-amino-2,3,6-trideoxy-4-O-[(2R)-tetrahydro-2H-pyran-2-yl]-α-L-lyxo-hexopyranoside]	3.48	16.04	39.8	21.25	26.98	31.44	10.24	91.79	21.32	29.22	86.89	55.37	48.33	30.38	41.67	65.59	30.04	48.44
